Patent publication US12077503B2, “Substituted cyclic amides and their use as herbicides” (FMC CORPORATION, priority 2015, dated 2024)

What was measured:
Type in all cases: in vivo
Kochia (Kochia scoparia) [1] = test: Test A preemergence; conditions: Bassia scoparia, pre-emergence, 240 h
Method in brief: (§1)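 Ratings of 0 (no effect) to 100 (complete control) come from visual comparison with untreated controls roughly 10 d after treatment. Test chemicals, formulated in a non-phytotoxic solvent mixture with surfactant, were applied either as a preemergence directed soil spray on seeded soil or postemergence to one- to two-leaf plants 2 to 10 cm tall.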

[2] = tested on: barnyardgrass (Echinochloa crus-galli); test: Test A preemergence; conditions: Echinochloa crus-galli, pre-emergence, 240 h
Method in brief: as §1

[3] = tested on: giant foxtail (Setaria faberii); test: Test A preemergence; conditions: Setaria faberi, pre-emergence, 240 h
Method in brief: as §1

[4] = tested on: pigweed (Amaranthus retroflexus); test: Test A preemergence; conditions: Amaranthus retroflexus, pre-emergence, 240 h
[5] = tested on: ragweed (common ragweed, Ambrosia elatior); test: Test A preemergence; conditions: Ambrosia artemisiifolia, pre-emergence, 240 h
Method in brief: as §1

[6] = tested on: ryegrass, Italian (Italian ryegrass, Lolium multiflorum); test: Test A preemergence; conditions: Lolium multiflorum, pre-emergence, 240 h
Method in brief: as §1

[7] = tested on: Galium (catchweed bedstraw, Galium aparine); test: Test A postemergence; conditions: Galium, post-emergence, 240 h, 125 g ai/ha, Postemergence; visual injury after approximately 10 d; 0 to 100 scale where 0 is no effect and 100 is complete control; read-out: Plant response rating, Galium
Method in brief: as §1

Kochia (Kochia scoparia) [8] = test: Test A postemergence; conditions: Bassia scoparia, post-emergence, 240 h, 125 g ai/ha, Postemergence; visual injury after approximately 10 d; 0 to 100 scale where 0 is no effect and 100 is complete control; read-out: Plant response rating, Kochia
Method in brief: as §1

[9] = tested on: barnyardgrass (Echinochloa crus-galli); test: Test A postemergence; conditions: Echinochloa crus-galli, post-emergence, 240 h, 125 g ai/ha, Postemergence; visual injury after approximately 10 d; 0 to 100 scale where 0 is no effect and 100 is complete control; read-out: Plant response rating, Barnyardgrass
Method in brief: as §1

[10] = tested on: blackgrass (Alopecurus myosuroides); test: Test A postemergence; conditions: Alopecurus myosuroides, post-emergence, 240 h, 125 g ai/ha, Postemergence; visual injury after approximately 10 d; 0 to 100 scale where 0 is no effect and 100 is complete control; read-out: Plant response rating, Blackgrass
Method in brief: as §1

corn (Zea mays) = test: Test A postemergence; conditions: Zea mays, post-emergence, 240 h, 125 g ai/ha, Postemergence; visual injury after approximately 10 d; 0 to 100 scale where 0 is no effect and 100 is complete control
Method in brief: as §1

[11] = tested on: giant foxtail (Setaria faberii); test: Test A postemergence; conditions: Setaria faberi, post-emergence, 240 h, 125 g ai/ha, Postemergence; visual injury after approximately 10 d; 0 to 100 scale where 0 is no effect and 100 is complete control; read-out: Plant response rating, Foxtail, Giant
Method in brief: as §1

[12] = tested on: pigweed (Amaranthus retroflexus); test: Test A postemergence; conditions: Amaranthus retroflexus, post-emergence, 240 h, 125 g ai/ha, Postemergence; visual injury after approximately 10 d; 0 to 100 scale where 0 is no effect and 100 is complete control; read-out: Plant response rating, Pigweed
Method in brief: as §1

[13] = tested on: ragweed (common ragweed, Ambrosia elatior); test: Test A postemergence; conditions: Ambrosia artemisiifolia, post-emergence, 240 h, 125 g ai/ha, Postemergence; visual injury after approximately 10 d; 0 to 100 scale where 0 is no effect and 100 is complete control; read-out: Plant response rating, Ragweed
Method in brief: as §1

[14] = tested on: ryegrass, Italian (Italian ryegrass, Lolium multiflorum); test: Test A postemergence; conditions: Lolium multiflorum, post-emergence, 240 h, 125 g ai/ha, Postemergence; visual injury after approximately 10 d; 0 to 100 scale where 0 is no effect and 100 is complete control; read-out: Plant response rating, Ryegrass, Italian
Method in brief: as §1

[15] = tested on: wheat (Triticum aestivum); test: Test A postemergence; conditions: Triticum aestivum, post-emergence, 240 h, 125 g ai/ha, Postemergence; visual injury after approximately 10 d; 0 to 100 scale where 0 is no effect and 100 is complete control; read-out: Plant response rating, Wheat
Method in brief: as §1

`CN1CC[C@H](c2cccc(Cl)c2)[C@@H](C(=O)Nc2ccccc2F)C1=O` [Compound 922] was tested, and the pest or weed control at 125 g/ha (Kochia (Kochia scoparia) [1]; 125 g ai/ha, preemergence, 0 to 100 scale where 0 is no effect and 100 is complete control, read-out: Kochia plant response rating) was 0%, the pest or weed control at 500 g/ha (Kochia (Kochia scoparia) [1]; 500 g ai/ha, Preemergence, visual injury vs untreated controls after approximately 10 d, read-out: Kochia plant response rating (0 to 100 scale where 0 is no effect and 100 is complete control)) was 0% and the pest or weed control at 125 g/ha ([2]; 125 g ai/ha, preemergence, 0 to 100 scale where 0 is no effect and 100 is complete control, read-out: Barnyardgrass plant response rating) was 60%. It also gave a pest or weed control at 500 g/ha ([2]; 500 g ai/ha, Preemergence, visual injury vs untreated controls after approximately 10 d, read-out: Barnyardgrass plant response rating (0 to 100 scale where 0 is no effect and 100 is complete control)) of 80%, a pest or weed control at 125 g/ha ([3]; 125 g ai/ha, preemergence, 0 to 100 scale where 0 is no effect and 100 is complete control, read-out: Foxtail, Giant plant response rating) of 90% and a pest or weed control at 500 g/ha ([3]; 500 g ai/ha, Preemergence, visual injury vs untreated controls after approximately 10 d, read-out: Foxtail, Giant plant response rating (0 to 100 scale where 0 is no effect and 100 is complete control)) of 90%. It also gave a pest or weed control at 125 g/ha ([4]; 125 g ai/ha, preemergence, 0 to 100 scale where 0 is no effect and 100 is complete control, read-out: Pigweed plant response rating) of 0%, a pest or weed control at 500 g/ha ([4]; 500 g ai/ha, Preemergence, visual injury vs untreated controls after approximately 10 d, read-out: Pigweed plant response rating (0 to 100 scale where 0 is no effect and 100 is complete control)) of 0% and a pest or weed control at 125 g/ha ([5]; 125 g ai/ha, preemergence, 0 to 100 scale where 0 is no effect and 100 is complete control, read-out: Ragweed plant response rating) of 0%. For the same compound, the pest or weed control at 500 g/ha ([5]; 500 g ai/ha, Preemergence, visual injury vs untreated controls after approximately 10 d, read-out: Ragweed plant response rating (0 to 100 scale where 0 is no effect and 100 is complete control)) was 0%, the pest or weed control at 125 g/ha ([6]; 125 g ai/ha, preemergence, 0 to 100 scale where 0 is no effect and 100 is complete control, read-out: Ryegrass, Italian plant response rating) was 20% and the pest or weed control at 500 g/ha ([6]; 500 g ai/ha, Preemergence, visual injury vs untreated controls after approximately 10 d, read-out: Ryegrass, Italian plant response rating (0 to 100 scale where 0 is no effect and 100 is complete control)) was 40%. For the same compound, the pest or weed control at 125 g/ha [7] was 0%, the pest or weed control at 125 g/ha (Kochia (Kochia scoparia) [8]) was 0% and the pest or weed control at 125 g/ha [9] was 90%. For the same compound, the pest or weed control at 125 g/ha [10] was 0%, the Corn plant response rating (crop injury, 0 = no effect, 100 = complete kill) at 125 g/ha (corn (Zea mays)) was 0% and the pest or weed control at 125 g/ha [11] was 50%. It also gave a pest or weed control at 125 g/ha [12] of 0%, a pest or weed control at 125 g/ha [13] of 0% and a pest or weed control at 125 g/ha [14] of 0%. It also gave a plant injury at 125 g/ha [15] of 0%.
